A word on the IC50: it is the concentration needed to halve the response being measured.

The first assay deals with T1, human Cav3.2 T-type Ca2+ channel (Homo sapiens, UniProt O95180).
T1 construct: expressed in transfected cells; host or cells: KJMGER8 cells (Namalwa cell-derived cell line)
T1 sequence (O95180 whole entry): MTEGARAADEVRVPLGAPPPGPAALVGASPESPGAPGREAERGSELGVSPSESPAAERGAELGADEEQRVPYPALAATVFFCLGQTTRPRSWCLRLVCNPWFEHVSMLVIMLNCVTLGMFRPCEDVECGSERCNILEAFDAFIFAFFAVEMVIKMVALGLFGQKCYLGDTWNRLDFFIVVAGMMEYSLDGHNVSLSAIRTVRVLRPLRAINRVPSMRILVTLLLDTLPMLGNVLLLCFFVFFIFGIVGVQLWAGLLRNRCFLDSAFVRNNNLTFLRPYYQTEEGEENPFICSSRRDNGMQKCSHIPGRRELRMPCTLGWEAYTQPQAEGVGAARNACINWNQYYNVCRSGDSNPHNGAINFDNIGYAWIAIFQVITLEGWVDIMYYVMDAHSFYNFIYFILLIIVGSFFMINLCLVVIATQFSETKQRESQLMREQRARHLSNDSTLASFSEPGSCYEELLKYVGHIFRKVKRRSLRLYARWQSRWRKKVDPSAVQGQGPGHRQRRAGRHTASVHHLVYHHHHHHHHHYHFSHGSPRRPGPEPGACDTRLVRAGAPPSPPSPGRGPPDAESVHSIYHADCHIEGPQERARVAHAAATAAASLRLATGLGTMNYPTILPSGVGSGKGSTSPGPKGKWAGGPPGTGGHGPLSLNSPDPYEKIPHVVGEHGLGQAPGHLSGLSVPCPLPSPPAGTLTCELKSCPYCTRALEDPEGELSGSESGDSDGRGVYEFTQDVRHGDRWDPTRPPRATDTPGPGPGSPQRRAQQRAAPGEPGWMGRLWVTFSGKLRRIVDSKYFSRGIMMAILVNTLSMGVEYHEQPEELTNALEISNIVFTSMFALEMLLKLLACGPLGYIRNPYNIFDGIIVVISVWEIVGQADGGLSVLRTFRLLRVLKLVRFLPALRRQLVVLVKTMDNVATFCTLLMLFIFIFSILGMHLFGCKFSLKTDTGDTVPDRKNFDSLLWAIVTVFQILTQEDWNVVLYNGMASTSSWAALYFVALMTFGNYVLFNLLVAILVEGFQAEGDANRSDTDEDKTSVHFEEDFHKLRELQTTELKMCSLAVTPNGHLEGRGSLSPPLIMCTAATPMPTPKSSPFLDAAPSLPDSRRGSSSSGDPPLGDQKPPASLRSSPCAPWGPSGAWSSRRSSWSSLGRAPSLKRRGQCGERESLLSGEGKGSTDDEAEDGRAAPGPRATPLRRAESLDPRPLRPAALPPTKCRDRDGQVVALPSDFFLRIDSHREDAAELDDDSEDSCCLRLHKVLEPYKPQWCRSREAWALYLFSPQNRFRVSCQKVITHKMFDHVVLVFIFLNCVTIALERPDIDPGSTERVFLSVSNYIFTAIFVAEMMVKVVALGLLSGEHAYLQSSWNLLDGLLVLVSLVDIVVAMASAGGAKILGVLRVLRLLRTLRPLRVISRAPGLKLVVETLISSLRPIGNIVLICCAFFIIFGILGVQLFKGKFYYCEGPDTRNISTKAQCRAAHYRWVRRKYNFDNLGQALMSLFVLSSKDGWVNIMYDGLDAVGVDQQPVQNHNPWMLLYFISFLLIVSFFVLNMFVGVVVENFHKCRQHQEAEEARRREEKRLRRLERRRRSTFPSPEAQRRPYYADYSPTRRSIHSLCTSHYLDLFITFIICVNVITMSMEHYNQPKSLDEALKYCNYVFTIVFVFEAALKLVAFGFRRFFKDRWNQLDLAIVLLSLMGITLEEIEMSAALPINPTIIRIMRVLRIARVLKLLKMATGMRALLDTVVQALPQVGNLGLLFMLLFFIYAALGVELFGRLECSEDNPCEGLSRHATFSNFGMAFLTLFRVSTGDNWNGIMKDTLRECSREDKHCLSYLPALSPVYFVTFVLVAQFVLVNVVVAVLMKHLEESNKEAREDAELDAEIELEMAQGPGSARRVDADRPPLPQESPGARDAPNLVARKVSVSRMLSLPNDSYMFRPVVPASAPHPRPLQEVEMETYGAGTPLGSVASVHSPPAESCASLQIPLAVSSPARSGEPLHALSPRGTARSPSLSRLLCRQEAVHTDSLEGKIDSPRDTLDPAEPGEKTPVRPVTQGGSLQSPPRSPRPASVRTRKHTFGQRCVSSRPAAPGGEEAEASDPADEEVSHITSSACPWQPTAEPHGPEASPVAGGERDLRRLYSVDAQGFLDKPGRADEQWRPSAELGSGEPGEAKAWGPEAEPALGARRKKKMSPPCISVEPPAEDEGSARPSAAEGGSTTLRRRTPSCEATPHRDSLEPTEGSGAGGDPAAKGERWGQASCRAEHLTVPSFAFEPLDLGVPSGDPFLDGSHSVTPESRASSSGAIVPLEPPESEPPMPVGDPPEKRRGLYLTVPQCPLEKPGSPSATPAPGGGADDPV
The assay can be described thus: Inhibitory effect for intracellular calcium response via Cav3.2 T-type Ca2+ channels (FLIPR Calcium 3 Assay Kit).
Details: not given
It counts as cell-based. Background: Calcium flux is commonly read through the fluorescence of an indicator in the cells.
On to `Cc1c(Cl)c(C(=O)NC2CCOCC2)cc2nc(C(F)(F)F)c(CC3CCC(F)(F)CC3)n12` [Compound 124, 6-Chloro-3-(4,4-difluorocyclohexylmethyl)-5-methyl-N-(tetrahydro-2H-pyran-4-yl)-2-trifluoromethylimidazo[1,2-a]pyridine-7-carboxamide], for which the IC50 was less than 100 nM.
Same read-out and setting: the same measure for `Cc1cc(C(=O)NCC2(F)CCOCC2)cc2nc(C(F)(F)F)c(CC3CCC(F)(F)CC3)n12` [Compound 87, 3-(4,4-Difluorocyclohexylmethyl)-N-{(4-fluorotetrahydro-2H-pyran-4-yl)methyl}-5-methyl-2-trifluoromethylimidazo[1,2-a]pyridine-7-carboxamide]: less than 100 nM; for `Cc1c(I)c(C(=O)Nc2ccccc2)cc2nc(C(F)(F)F)c(CC3CCC(F)(F)CC3)n12` [Compound 125, 3-(4,4-Difluorocyclohexylmethyl)-6-iodo-5-methyl-N-phenyl-2-trifluoromethylimidazo[1,2-a]pyridine-7-carboxamide]: less than 100 nM; for `CC(C)c1nc2cc(C(=O)NC3CCOC(C)(C)C3)c(Cl)cn2c1S(=O)(=O)N1CC(F)(F)C1` (stereo not shown) [Compound 153, 6-Chloro-3-(3,3-difluoroazetidin-1-ylsulfonyl)-N-(2,2-dimethyltetrahydro-2H-pyran-4-yl)-2-isopropylimidazo[1,2-a]pyridine-7-carboxamide]: less than 100 nM.
With `Cc1cc(C(=O)NC2CCSCC2)cc2nc(C(F)(F)F)c(CC3CCC(F)(F)CC3)n12` [Compound 74, 3-(4,4-Difluorocyclohexylmethyl)-5-methyl-N-(tetrahydro-2H-thiopyran-4-yl)-2-trifluoromethylimidazo[1,2-a]pyridine-7-carboxamide], the IC50 is less than 100 nM.
Still for that read-out and setting: the same measure for `Cc1cc(C(=O)NOC2CCOCC2)cc2nc(C(F)(F)F)c(CC3CCC(F)(F)CC3)n12` [Compound 90, 3-(4,4-Difluorocyclohexylmethyl)-5-methyl-N-(tetrahydro-2H-pyran-4-yloxy)-2-trifluoromethylimidazo[1,2-a]pyridine-7-carboxamide]: less than 100 nM; for `O=C(NC1CCOCC1)c1ccn2c(CC3CCC(F)(F)CC3)c(C3(C(F)(F)F)CC3)nc2c1` [Compound 65, 3-(4,4-Difluorocyclohexylmethyl)-N-(tetrahydro-2H-pyran-4-yl)-2-(1-trifluoromethylcyclopropyl)imidazo[1,2-a]pyridine-7-carboxamide]: less than 100 nM; for `CN(C(C)(C)C)S(=O)(=O)c1c(C(F)(F)F)nc2cc(C(=O)Nc3ccccc3)ccn12` [Compound 147, 3-(N-tert-Butyl-N-methylsulfamoyl)-N-phenyl-2-trifluoromethylimidazo[1,2-a]pyridine-7-carboxamide]: less than 100 nM.
The same measure, in the same setting: the same measure for `Cc1c(C(=O)Nc2ccncc2)ccn2c(CC3CCCCC3)c(C(C)(C)C)nc12` [Compound 42, 2-tert-Butyl-3-cyclohexylmethyl-8-methyl-N-(pyridin-4-yl)imidazo[1,2-a]pyridine-7-carboxamide]: less than 100 nM; for `Cc1cc(C(=O)NCC2(CO)CCOCC2)cc2nc(C(F)(F)F)c(CC3CCC(F)(F)CC3)n12` [Compound 85, 3-(4,4-Difluorocyclohexylmethyl)-N-[{4-(hydroxymethyl)tetrahydro-2H-pyran-4-yl}methyl]-5-methyl-2-trifluoromethylimidazo[1,2-a]pyridine-7-carboxamide]: less than 100 nM; for `CC1(C)COCCC1NC(=O)c1ccn2c(CC3CCC(F)(F)CC3)c(C(F)(F)F)nc2c1` (stereo not shown) [Compound 53, 3-(4,4-Difluorocyclohexylmethyl)-N-(3,3-dimethyltetrahydro-2H-pyran-4-yl)-2-trifluoromethylimidazo[1,2-a]pyridine-7-carboxamide]: less than 100 nM.

Still in this assay, the particulars now being: human Cav3.2-expressing KJMGER8 cells (Namalwa-derived); calcium response induced by 5 mmol/L CaCl2; normalised to 3 μmol/L mibefradil; read-out: IC50 for the human Cav3.2 T-type Ca2+ current.
Take `CC(C)c1nc2nc(C(=O)Nc3ccccc3)ccn2c1S(=O)(=O)N1CCC(F)(F)CC1` [Compound 171, 3-(4,4-Difluoropiperidin-1-ylsulfonyl)-2-isopropyl-N-phenylimidazo[1,2-a]pyrimidine-7-carboxamide]: the IC50 is less than 100 nM.
On the same count and under the same terms, the same measure for `Cc1cc(C(=O)NCC2COCCOC2)cc2nc(C(F)(F)F)c(CC3CCC(F)(F)CC3)n12` [Compound 93, N-{(1,4-Dioxepan-6-yl)methyl}-3-(4,4-difluorocyclohexylmethyl)-5-methyl-2-trifluoromethylimidazo[1,2-a]pyridine-7-carboxamide]: less than 100 nM; for `CC(C)c1nc2cc(C(=O)NOCc3ccccc3)ccn2c1S(=O)(=O)N1CC(F)(F)C1` [Compound 135, N-(Benzyloxy)-3-(3,3-difluoroazetidin-1-ylsulfonyl)-2-isopropylimidazo[1,2-a]pyridine-7-carboxamide]: less than 100 nM.
As to `O=C(Nc1ccccc1)c1cc2nc(C(F)(F)F)c(CC3CCC(F)(F)CC3)n2cc1Cl` [Compound 107, 6-Chloro-3-(4,4-difluorocyclohexylmethyl)-N-phenyl-2-trifluoromethylimidazo[1,2-a]pyridine-7-carboxamide], the IC50 was less than 100 nM.
Same read-out and setting: the same measure for `CS(=O)(=O)c1cccc(NC(=O)c2ccn3c(CC4CCC(F)(F)CC4)c(C(F)(F)F)nc3c2)c1` [Compound 48, 3-(4,4-Difluorocyclohexylmethyl)-N-(3-methanesulfonylphenyl)-2-trifluoromethylimidazo[1,2-a]pyridine-7-carboxamide]: less than 100 nM; for `Cc1cn2c(S(=O)(=O)C3CCCCC3)c(C(C)C)nc2cc1C(=O)Nc1ccccc1` [Compound 163, 3-(Cyclohexylsulfonyl)-2-isopropyl-6-methyl-N-phenyl-imidazo[1,2-a]pyridine-7-carboxamide]: less than 100 nM.
On to `CCC1(CNC(=O)c2ccn3c(CC4CCC(F)(F)CC4)c(C(F)(F)F)nc3c2)COC1` [Compound 56, 3-(4,4-Difluorocyclohexylmethyl)-N-{(3-ethyloxetan-3-yl)methyl}-2-trifluoromethylimidazo[1,2-a]pyridine-7-carboxamide], for which the IC50 was less than 100 nM.
On the same count and under the same terms, the same measure for `COC1(CNC(=O)c2cc(C)n3c(CC4CCC(F)(F)CC4)c(C(F)(F)F)nc3c2)CCOCC1` [Compound 86, 3-(4,4-Difluorocyclohexylmethyl)-N-{(4-methoxytetrahydro-2H-pyran-4-yl)methyl}-5-methyl-2-trifluoromethylimidazo[1,2-a]pyridine-7-carboxamide]: less than 100 nM.
`CC(C)c1nc2cc(C(=O)Nc3ccccc3)c(Cl)cn2c1S(=O)(=O)NC(C)(C)C` [Compound 156, 3-(N-tert-Butylsulfamoyl)-6-chloro-2-isopropyl-N-phenylimidazo[1,2-a]pyridine-7-carboxamide]: the IC50 was less than 100 nM.
The same measure, in the same setting: the same measure for `C=Cc1cn2c(CC3CCC(F)(F)CC3)c(C(F)(F)F)nc2cc1C(=O)Nc1ccccc1` [Compound 120, 3-(4,4-Difluorocyclohexylmethyl)-N-phenyl-2-trifluoromethyl-6-vinylimidazo[1,2-a]pyridine-7-carboxamide]: less than 100 nM; for `CC(C)c1nc2cc(C(=O)Nc3ccccc3N)c(Cl)cn2c1S(=O)(=O)N1CC(F)(F)C1` [Compound 149, N-(2-Aminophenyl)-6-chloro-3-(3,3-difluoroazetidin-1-ylsulfonyl)-2-isopropylimidazo[1,2-a]pyridine-7-carboxamide]: less than 100 nM.

These data come from patent publication US9000186B2, “Ring-fused heterocyclic derivative” (Kyowa Hakko Kirin Co., Ltd., priority 2011, dated 2015).
